Test results published in patent US10772909B2, “System and method for insulin-mimetic of cartilage, bone, or osteochondral repair and piezoelectric composite scaffold” (New Jersey Institute of Technology, priority 2016, dated 2020).
Where two headings read alike, the source gives them in different places.

Tests used:
Human MSCs [1] = test: Chondrogenesis culture: cell number (PicoGreen); type: cell-based
Procedure: (§1) Chondrogenesis Culture. Cryopreserved MSCs were thawed and expanded in GM until 70-80% confluent. Cells were trypsininzed and then seeded on 6 mm diameter scaffold disks at 1.76×10^5 cells/cm^2 and cultured for 28 days in GM, chondrogenic induction medium (CCM), or CCM without insulin, according to previously published methods. CCM consisted of DMEM high glucose containing 4 mM L-glutamine (Invitrogen, Grand Island, N.Y., USA), 0.1 μM dexamethasone (Sigma-Aldrich), 0.17 mM ascorbic acid-2-phosphate (Wako Chemicals, Richmond, Va., USA), 1% ITS+(6.25 µg/mL insulin, 6.25 µg/mL transferrin, 6.25 ng/mL selenous acid, 5.35 μg/ml linoleic acid and 1.25 mg of bovine serum albumin) Premix Culture Supplement (Corning, Corning, N.Y., USA), 1× antibiotic-antimycotic, 1 mM sodium pyruvate (Sigma-Aldrich), 0.35 mM proline (Sigma-Aldrich), and 10 ng/mL recombinant human transforming growth factor-beta3 (TGF-β3, ProSpec, Israel). CCM without insulin consisted of CCM where the 1% ITS+Premix Culture Supplement was substituted with 1% stock solution (6.25 μg/ml transferrin and 6.25 ng/ml selenous acid, 5.35 μg/ml lionleic acid (Sigma-Aldrich) and 1.25 mg of bovine serum albumin (Fisher Scientific). Na2WO4 was added to all media leading to final Na2WO4 concentrations of 0, 0.01, 0.1 and 1 mM. Samples were harvested and analyzed for sulfated glycosaminoglycans (sGAG), cell number and gene expression at day 14 and 28 and for collagen type II and immunostaining at day 28.
Production of sGAG and cell number were determined. Samples were digested using papain (Sigma-Aldrich, Mo., USA) buffer overnight at 65 C. ° following manufacturer's protocol. The sGAG assay is used to measure the total sulfated proteoglycan content using Blyscan sGAG Assay Kit (Biocolor, UK). Cell lysate of samples (n=4 per group) and color reagent were combined in transparent 96-well plate and the absorbance at 656 nm was measured using a microplate spectrophotometer (EMax, Molecular Devices, Melville, N.Y., USA). sGAG concentration was determined relative to chondroitin sulfate standard curve. PicoGreen® ds DNA assay (Life Technologies) was used to determine the cell number. MSCs of known cell number were used as standards. Standards were prepared by lysing the cells using papain buffer. The cell lysate of samples and standards (n=4 per group) was mixed with an equal volume of Pico Green reagent. Fluorescence intensity was measured with a microplate reader ((FLX800, Biotek Instruments, Vt., USA)) at 480 nm excitation and 520 nm emission. A standard curve of known cell number was used to determine the sample cell number. GAG production was normalized to cell number.

aggrecan = test: Chondrogenesis culture: gene expression by RT-PCR, aggrecan; type: cell-based, human; conditions: for aggrecan gene expression vs 0 and 1 mM groups: CCM without insulin
Procedure: as §1
(§2) Gene expression was evaluated using quantitative reverse transcription (RT)-polymerase chain reaction (PCR) analysis. RT-PCR was performed with RNeasy Micro Kit and SYBR Green RT-PCR Kit (Qiagen; Valencia, Calif., USA) using the MX4000 detection system (Stratagene) according to the manufacturer's protocol. Relative gene expression of SOX-9, aggrecan and collagen type II were determined. Samples (n=4 per group) were harvested and digested using Lysis Buffer. RNA was isolated from the samples using RNeasy Micro Kit (Qiagen) including DNA digestion step (RNase Free DNase Set; Qiagen). The RNA quantity and integrity were determined by measuring the absorbance at 260 nm and the absorbance ratio of 260 nm/280 nm, respectively, using Nanodrop™ Spectrophotometer (Thermo Fisher Scientific). Quantitative PCR analysis was performed using QuantiTect SYBR Green supermix including the QuantiTect Primer Assays. The reverse transcription step ran for 30 minutes at 50° C., 15 minutes at 95° C. of PCR activation followed by forty cycle of amplification consisting of 15 s denaturation at 94° C., 30 s of annealing at 55° C., and 30 s of extension at 72° C. A melting curve analysis of the RT-PCR product was included for each reaction. Samples were analyzed in triplicate and the value of each gene was normalized to the reference gene ribosomal protein, large, P0 (RPLP0) for the same sample (ΔCT). Primers were purchased from Qiagen (Hs_ACAN, QT00001365; Hs_SOX9, QT00001498; Hs_COL2A1, QT00049518; and Hs_RPLP0 QT00075012).

SOX-9 = test: Chondrogenesis culture: gene expression by RT-PCR, SOX-9; type: cell-based, human
Procedure: as §1, §2

collagen type II = test: Chondrogenesis culture: gene expression by RT-PCR, collagen type II; type: cell-based, human; conditions: for collagen type II gene expression vs 0 and 1 mM groups: CCM without insulin, days 14 and 28; for collagen type II gene expression vs 0 mM: day 14
Procedure: as §1, §2

Human MSCs [2] = test: Chondrogenesis culture: immunostaining, confocal microscopy; type: cell-based; conditions: day 28
Procedure: as §1
Immunostaining was used to observe cell morphology and collagen type II deposition at day 28. Samples were fixed using 4% paraformaldehyde for 20 minutes. Samples were permealized with 0.1% Triton-X for 15 minutes and then non-specific binding was blocked using 5% donkey serum (Sigma-Aldrich, Mo., USA) for 1 hour. Samples were incubated with mouse antihuman collagen type II antibody (EMD Millipore; Calif., USA) in 4° C. overnight. Samples were then incubated with conjugated northern light 493 secondary antibody (Donkey anti-Mouse IgG, Fisher Scientific, Rockford, Ill.) and rhodamine phalloidin (Life Technologies) for actin filament for 1 h. The nucleus was stained with 4′,6-diamidino-2-phenylindole (DAPI, Fisher Scientific). The images were taken using a confocal fluorescence microscope (Cl-si, Nikon, Japan).

[3] = test system: human peripheral blood lymphocytes; conditions: cited from earlier work
[4] = 0.01 mM Na2WO4, CCM, day 28, p<0.05

For `[Na+].[Na+].[O]=[W](=[O])([O-])[O-]` [Na2WO4, sodium tungstate], the “cell number vs 0.1 mM” value (Human MSCs [1]; [4]) was “significantly higher than 0.1 mM”, the “cell number vs 0 mM” value (Human MSCs [1]; 0.1 mM Na2WO4, GM, day 14) was “significantly higher” and the “cell number vs other groups” value (Human MSCs [1]; 1 mM Na2WO4, CCM) was “significantly lower”. For the same compound, the “cell number vs all other groups” value (Human MSCs [1]; 1 mM Na2WO4, CCM without insulin, day 28) was “significantly lower cell numbers”, the “aggrecan gene expression vs 0 and 1 mM groups” value (aggrecan; 0.01 mM Na2WO4, days 14 and 28) was “significantly higher” and the “aggrecan gene expression vs 0 mM” value (aggrecan; 0.01 mM Na2WO4, CCM, day 14, p<0.05) was “lower aggrecan expression”. The “aggrecan gene expression vs 0 and 1 mM groups” value (aggrecan; 0.1 mM Na2WO4, days 14 and 28) was “significantly higher”, the “aggrecan gene expression vs all groups” value (aggrecan; 0.1 mM Na2WO4, CCM, days 14 and 28) was “significantly higher” and the aggrecan gene expression (aggrecan; 1 mM Na2WO4, CCM) was “lowest gene expression”. The “aggrecan gene expression (chondrogenic genes)” value (aggrecan; GM with Na2WO4) was “no significant upregulation of chondrogenic genes”, the “SOX-9 gene expression vs 0 mM” value (SOX-9; 0.01 mM Na2WO4, CCM without insulin, day 14) was “significantly higher” and the “SOX-9 gene expression vs 0 mM” value (SOX-9; [4]) was “significantly higher SOX-9”. The SOX-9 gene expression (SOX-9; 0.1 mM Na2WO4, CCM, day 14, p<0.05) was “highest SOX-9 gene expression”, the “SOX-9 gene expression vs 0 mM” value (SOX-9; 0.1 mM Na2WO4, CCM, day 28, p<0.01) was “significantly higher SOX-9” and the SOX-9 gene expression (SOX-9; 1 mM Na2WO4, CCM) was “lowest gene expression”. The “SOX-9 gene expression (chondrogenic genes)” value (SOX-9; GM with Na2WO4) was “no significant upregulation of chondrogenic genes”, the “collagen type II gene expression, change between days 14 and 28” value (collagen type II; 0.01 mM Na2WO4, CCM) was “significant increase in collagen type II expression” and the “collagen type II gene expression vs 0 and 1 mM groups” value (collagen type II; 0.01 mM Na2WO4) was “significantly higher”. The “collagen type II gene expression vs 0 mM” value (collagen type II; 0.01 mM Na2WO4, CCM, p<0.001) was “significantly higher collagen type II”, the “collagen type II gene expression vs all groups” value (collagen type II; 0.01 mM Na2WO4, CCM, day 28, p<0.001) was “significantly higher” and the “collagen type II gene expression vs 0 and 1 mM groups” value (collagen type II; 0.1 mM Na2WO4) was “significantly higher”. For the same compound, the “collagen type II gene expression vs 0 mM” value (collagen type II; 0.1 mM Na2WO4, CCM, p<0.001) was “significantly higher collagen type II”, the “collagen type II gene expression” value (collagen type II; 1 mM Na2WO4, CCM) was “lowest gene expression” and the “collagen type II gene expression (chondrogenic genes)” value (collagen type II; GM with Na2WO4) was “no significant upregulation of chondrogenic genes”. For the same compound, the “collagen type II immunostaining vs 0 mM” value (Human MSCs [2]; 0.01 mM Na2WO4, GM) was “more intense”, the “collagen type II immunostaining vs 0 mM” value (Human MSCs [2]; 0.1 mM Na2WO4, GM) was “more intense” and the “collagen type II immunostaining” value (Human MSCs [2]; CCM without insulin groups, except for 1 mM Na2WO4) was “showed collagen type II staining”. For the same compound, the “collagen type II immunostaining vs 0 mM” value (Human MSCs [2]; Na2WO4 groups, CCM) was “more intense collagen type II staining”, the “actin filament staining as an indicator of attachment” value (Human MSCs [2]; all groups) was “intense actin filament staining” and the immune response ([3]; 0.01 mM) was “did not stimulate an immune response”. The immune response ([3]; 0.1 mM) was “did not stimulate an immune response” and the toxicity ([3]; 1 mM dose) was “significant toxicity occurred”.
